Measured values reported in ChEMBL document CHEMBL1201862, “PubChem BioAssay data set” (2004).
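How tested: cells in 96-well plates exposed to compound for 48 hours at five concentrations. GI50 is the concentration that inhibits growth by half.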 Active and inactive are the calls of the source. Cut-off read from the data, not from the text of the source: active = GI50 up to about 1.1 µM and inactive = higher.

How the values were obtained:
Assay in all cases: NCI anticancer screen, dose series, 48 h
786-0 = test system: 786-0
A498 = test system: A498
BT-549 = test system: BT-549
CAKI-1 = test system: CAKI-1
HCT-15 = test system: HCT-15
HOP-92 = test system: HOP-92
Hs-578T = test system: Hs-578T
IGROV-1 = test system: IGROV-1
M14 = test system: M14
MOLT-4 = test system: MOLT-4
NCI-H23 = test system: NCI-H23
NCI-H460 = test system: NCI-H460
OVCAR-4 = test system: OVCAR-4
OVCAR-5 = test system: OVCAR-5
PC-3 = test system: PC-3
RXF 393 = test system: RXF 393
SF-295 = test system: SF-295
SK-OV-3 = test system: SK-OV-3
T47D = test system: T47D
MCF7 = test system: MCF7

## C[C@H](N)C(=O)Nc1ccc(-c2nc3ccccc3s2)cc1
786-0
  GI50: 15.7 µM (inactive)
A498
  GI50: 30.1 µM (inactive)
BT-549
  GI50: > 100 µM (inactive)
CAKI-1
  GI50: 17.1 µM (inactive)
HCT-15
  GI50: 17.7 µM
HOP-92
  GI50: 26.4 µM (inactive)
Hs-578T
  GI50: 37.8 µM (inactive)
IGROV-1
  GI50: 15.2 µM (inactive)
M14
  GI50: 10.9 µM (inactive)
MOLT-4
  GI50: 16.3 µM (inactive)
NCI-H23
  GI50: 32.2 µM (inactive)
NCI-H460
  GI50: 16.9 µM (inactive)
OVCAR-4
  GI50: 16.4 µM (inactive)
OVCAR-5
  GI50: 18.7 µM (inactive)
PC-3
  GI50: 20.2 µM (inactive)
RXF 393
  GI50: 29.3 µM (inactive)
SF-295
  GI50: 18.7 µM (inactive)
SK-OV-3
  GI50: 22.5 µM (inactive)
T47D
  GI50: 17.5 µM (inactive)

## Cc1cccc(Nc2nc3ccccc3nc2NS(=O)(=O)c2ccccc2)c1
786-0
  GI50: 39.4 µM (inactive)
BT-549
  GI50: 40.1 µM (inactive)
CAKI-1
  GI50: 44.1 µM (inactive)
HCT-15
  GI50: 16 µM
HOP-92
  GI50: 11 µM (inactive)
Hs-578T
  GI50: 33 µM (inactive)
IGROV-1
  GI50: 19.9 µM (inactive)
M14
  GI50: 38.3 µM (inactive)
MCF7
  GI50: 26.5 µM (inactive)
MOLT-4
  GI50: 12.6 µM (inactive)
NCI-H23
  GI50: 18.3 µM (inactive)
NCI-H460
  GI50: 15.6 µM (inactive)
OVCAR-4
  GI50: 2.14 µM (inactive)
OVCAR-5
  GI50: > 100 µM (inactive)
PC-3
  GI50: 14.4 µM (inactive)
RXF 393
  GI50: 27.7 µM (inactive)
SF-295
  GI50: 14.5 µM (inactive)
SK-OV-3
  GI50: 25.2 µM (inactive)
T47D
  GI50: 18.5 µM (inactive)

## NCCCN(CCCN)CCc1cn(C(=O)c2ccccc2)cn1
786-0
  GI50: 8.59 µM (inactive)
BT-549
  GI50: 12.5 µM (inactive)
CAKI-1
  GI50: 4.46 µM (inactive)
HCT-15
  GI50: 7.78 µM
HOP-92
  GI50: 4.05 µM (inactive)
Hs-578T
  GI50: 11.4 µM (inactive)
IGROV-1
  GI50: 4.19 µM (inactive)
M14
  GI50: 4.94 µM (inactive)
MCF7
  GI50: 2.62 µM (inactive)
MOLT-4
  GI50: 2.19 µM (inactive)
NCI-H23
  GI50: 13.2 µM (inactive)
NCI-H460
  GI50: 15.7 µM (inactive)
OVCAR-4
  GI50: 4.93 µM (inactive)
OVCAR-5
  GI50: 16.2 µM (inactive)
PC-3
  GI50: 8.63 µM (inactive)
RXF 393
  GI50: 2.97 µM (inactive)
SF-295
  GI50: 12.7 µM (inactive)
SK-OV-3
  GI50: 11.2 µM (inactive)
T47D
  GI50: 4.85 µM (inactive)

## CC12CC3c4ccccc4CN1C3(c1ccccc1)OC2=O (configuration not stated)
786-0
  GI50: > 100 µM (inactive)
A498
  GI50: > 100 µM (inactive)
BT-549
  GI50: > 100 µM (inactive)
CAKI-1
  GI50: > 100 µM (inactive)
HCT-15
  GI50: > 100 µM
Hs-578T
  GI50: > 100 µM (inactive)
IGROV-1
  GI50: > 100 µM (inactive)
M14
  GI50: > 100 µM (inactive)
MOLT-4
  GI50: > 100 µM (inactive)
NCI-H23
  GI50: > 100 µM (inactive)
OVCAR-4
  GI50: > 100 µM (inactive)
OVCAR-5
  GI50: > 100 µM (inactive)
PC-3
  GI50: > 100 µM (inactive)
RXF 393
  GI50: > 100 µM (inactive)
SF-295
  GI50: > 100 µM (inactive)
SK-OV-3
  GI50: > 100 µM (inactive)
T47D
  GI50: > 100 µM (inactive)

## Cc1ccc(O)c(C2=CC(c3cccc(Br)c3)SC(=N)N2)c1 (configuration not stated)
786-0
  GI50: 23.7 µM (inactive)
BT-549
  GI50: 29.8 µM (inactive)
CAKI-1
  GI50: 28.4 µM (inactive)
HCT-15
  GI50: 14.5 µM
HOP-92
  GI50: 19 µM (inactive)
Hs-578T
  GI50: 20.4 µM (inactive)
IGROV-1
  GI50: 18.8 µM (inactive)
M14
  GI50: 24.3 µM (inactive)
MCF7
  GI50: 23.3 µM (inactive)
MOLT-4
  GI50: 18.9 µM (inactive)
NCI-H23
  GI50: 25.6 µM (inactive)
NCI-H460
  GI50: 20.5 µM (inactive)
OVCAR-4
  GI50: 28.9 µM (inactive)
OVCAR-5
  GI50: 29.5 µM (inactive)
PC-3
  GI50: 26.1 µM (inactive)
RXF 393
  GI50: 19.5 µM (inactive)
SF-295
  GI50: 21.2 µM (inactive)
SK-OV-3
  GI50: 28.8 µM (inactive)
T47D
  GI50: 26.5 µM (inactive)

## CCCCCCCc1ccc(-c2nnc(/N=N/c3ccc(OCCCCC)cc3)s2)s1
786-0
  GI50: > 100 µM (inactive)
A498
  GI50: > 100 µM (inactive)
BT-549
  GI50: > 100 µM (inactive)
CAKI-1
  GI50: > 100 µM (inactive)
HCT-15
  GI50: > 100 µM
Hs-578T
  GI50: > 100 µM (inactive)
IGROV-1
  GI50: 79.1 µM (inactive)
M14
  GI50: > 100 µM (inactive)
MCF7
  GI50: > 100 µM (inactive)
MOLT-4
  GI50: > 100 µM (inactive)
NCI-H23
  GI50: > 100 µM (inactive)
NCI-H460
  GI50: > 100 µM (inactive)
OVCAR-4
  GI50: > 100 µM (inactive)
OVCAR-5
  GI50: > 100 µM (inactive)
PC-3
  GI50: > 100 µM (inactive)
RXF 393
  GI50: > 100 µM (inactive)
SF-295
  GI50: > 100 µM (inactive)
SK-OV-3
  GI50: > 100 µM (inactive)
T47D
  GI50: > 100 µM (inactive)

## Cc1c(-c2ccc(O)cc2)n(CCCCCCNCCOC(=O)NCCCc2ccc(N(CCCl)CCCl)cc2)c2ccc(O)cc12
786-0
  GI50: 1.59 µM (inactive)
A498
  GI50: 14.9 µM (inactive)
BT-549
  GI50: 12.4 µM (inactive)
CAKI-1
  GI50: 11.1 µM (inactive)
HCT-15
  GI50: 1.79 µM
Hs-578T
  GI50: 1.98 µM (inactive)
IGROV-1
  GI50: 2.07 µM (inactive)
M14
  GI50: 1.59 µM (inactive)
MCF7
  GI50: 0.766 µM (active)
MOLT-4
  GI50: 1.17 µM (inactive)
NCI-H23
  GI50: 1.78 µM (inactive)
NCI-H460
  GI50: 1.52 µM (inactive)
OVCAR-4
  GI50: 1.9 µM (inactive)
OVCAR-5
  GI50: 15.1 µM (inactive)
PC-3
  GI50: 2.47 µM (inactive)
SF-295
  GI50: 2.21 µM (inactive)
SK-OV-3
  GI50: 10.2 µM (inactive)
T47D
  GI50: 0.0552 µM (active)

## CCOC(=O)CCC(C(=O)OCC)n1nnc2ccc(Nc3c(C)[n+]([O-])c4cc(Cl)ccc4[n+]3[O-])cc21 (configuration not stated)
786-0
  GI50: 45.4 µM (inactive)
BT-549
  GI50: 26.5 µM (inactive)
CAKI-1
  GI50: 34.4 µM (inactive)
HCT-15
  GI50: 22.8 µM
HOP-92
  GI50: 16 µM (inactive)
Hs-578T
  GI50: 32.4 µM (inactive)
IGROV-1
  GI50: 27.7 µM (inactive)
M14
  GI50: 19 µM (inactive)
MCF7
  GI50: 17.9 µM (inactive)
MOLT-4
  GI50: 38.2 µM (inactive)
NCI-H23
  GI50: 24.8 µM (inactive)
NCI-H460
  GI50: 35.3 µM (inactive)
OVCAR-4
  GI50: 18.3 µM (inactive)
OVCAR-5
  GI50: 46.5 µM (inactive)
PC-3
  GI50: 53.8 µM (inactive)
RXF 393
  GI50: 22.4 µM (inactive)
SF-295
  GI50: 68.1 µM (inactive)
SK-OV-3
  GI50: 99.5 µM (inactive)
T47D
  GI50: 19.5 µM (inactive)

## COc1cc([C@@H]2c3cc4c(cc3[C@@H](NCCNCCO)[C@H]3COC(=O)[C@H]23)OCO4)cc(OC)c1O
786-0
  GI50: 0.762 µM (active)
A498
  GI50: 3.85 µM (inactive)
BT-549
  GI50: 2.14 µM (inactive)
CAKI-1
  GI50: 2.83 µM (inactive)
HCT-15
  GI50: 34.6 µM
Hs-578T
  GI50: 2.63 µM (inactive)
IGROV-1
  GI50: 1.3 µM (inactive)
M14
  GI50: 3.48 µM (inactive)
MOLT-4
  GI50: 0.0267 µM (active)
NCI-H23
  GI50: 1.08 µM (active)
NCI-H460
  GI50: 0.0951 µM (active)
OVCAR-4
  GI50: 14.4 µM (inactive)
PC-3
  GI50: 3.78 µM (inactive)
RXF 393
  GI50: 2.02 µM (inactive)
SK-OV-3
  GI50: 2.33 µM (inactive)
T47D
  GI50: 0.841 µM (active)

## O=C(O)c1cc2ccccc2c(/N=N/c2ccccc2)c1O
786-0
  GI50: 33.5 µM (inactive)
A498
  GI50: 33.7 µM (inactive)
BT-549
  GI50: 20.8 µM (inactive)
CAKI-1
  GI50: 35.6 µM (inactive)
HCT-15
  GI50: 27.9 µM
HOP-92
  GI50: 55.3 µM (inactive)
Hs-578T
  GI50: 6.82 µM (inactive)
IGROV-1
  GI50: 34.1 µM (inactive)
M14
  GI50: 14.9 µM (inactive)
MOLT-4
  GI50: 92.7 µM (inactive)
NCI-H23
  GI50: 16.7 µM (inactive)
OVCAR-4
  GI50: > 100 µM (inactive)
OVCAR-5
  GI50: 24.9 µM (inactive)
PC-3
  GI50: 18.5 µM (inactive)
RXF 393
  GI50: 34.9 µM (inactive)
SF-295
  GI50: 12.4 µM (inactive)
SK-OV-3
  GI50: 41.9 µM (inactive)
T47D
  GI50: 38.1 µM (inactive)

## Cc1nc(C)c(C(=O)NNC(N)=S)cc1C(=O)NNC(N)=S
786-0
  GI50: > 100 µM (inactive)
BT-549
  GI50: > 100 µM (inactive)
CAKI-1
  GI50: > 100 µM (inactive)
HCT-15
  GI50: > 100 µM
HOP-92
  GI50: > 100 µM (inactive)
Hs-578T
  GI50: > 100 µM (inactive)
IGROV-1
  GI50: > 100 µM (inactive)
M14
  GI50: > 100 µM (inactive)
MCF7
  GI50: > 100 µM (inactive)
MOLT-4
  GI50: > 100 µM (inactive)
NCI-H23
  GI50: > 100 µM (inactive)
NCI-H460
  GI50: > 100 µM (inactive)
OVCAR-4
  GI50: > 100 µM (inactive)
OVCAR-5
  GI50: > 100 µM (inactive)
PC-3
  GI50: > 100 µM (inactive)
RXF 393
  GI50: > 100 µM (inactive)
SF-295
  GI50: > 100 µM (inactive)
SK-OV-3
  GI50: > 100 µM (inactive)
T47D
  GI50: > 100 µM (inactive)
